# In patent US9200252B2, “Compositions for inducing differentiation into retinal cells from retinal progenitor cells or inducing proliferation of retinal cells comprising Wnt signaling pathway activators” (SNU R&DB Foundation, priority 2009, dated 2015):
# B1: Wnt5A: recombinant Wnt5A (R&D Systems), Wnt signaling pathway activator used instead of Wnt3a (protein, UniProt P41221 62-380, looked up)
# Protein Wnt-5a: IIGAQPLCSQLAGLSQGQKKLCHLYQDHMQYIGEGAKTGIKECQYQFRHRRWNCSTVDNTSVFGRVMQIGSRETAFTYAVSAAGVVNAMSRACREGELSTCGCSRAARPKDLPRDWLWGGCGDNIDYGYRFAKEFVDARERERIHAKGSYESARILMNLHNNEAGRRTVYNLADVACKCHGVSGSCSLKTCWLQLADFRKVGDALKEKYDSAAAMRLNSRGKLVQVNSRFNSPTTQDLVYIDPSPDYCVRNESTGSLGTQGRLCNKTSEGMDGCELMCCGRGYDQFKTVQTERCHCKFHWCCYVKCKKCTEIVDQFVCK
# B2: Wnt11: recombinant Wnt11 (R&D Systems), Wnt signaling pathway activator used instead of Wnt3a (protein, UniProt O96014 25-354, looked up)
# Protein Wnt-11: IKWLALSKTPSALALNQTQHCKQLEGLVSAQVQLCRSNLELMHTVVHAAREVMKACRRAFADMRWNCSSIELAPNYLLDLERGTRESAFVYALSAAAISHAIARACTSGDLPGCSCGPVPGEPPGPGNRWGGCADNLSYGLLMGAKFSDAPMKVKKTGSQANKLMRLHNSEVGRQALRASLEMKCKCHGVSGSCSIRTCWKGLQELQDVAADLKTRYLSATKVVHRPMGTRKHLVPKDLDIRPVKDSELVYLQSSPDFCMKNEKVGSHGTQDRQCNKTSNGSDSCDLMCCGRGYNPYTDRVVERCHCKYHWCCYVTCRRCERTVERYVCK
# B3: Wnt1: recombinant Wnt1 (PeproTech), Wnt signaling pathway activator used instead of Wnt3a (protein, UniProt P04628 28-370, looked up)
# Proto-oncogene Wnt-1: ANSSGRWWGIVNVASSTNLLTDSKSLQLVLEPSLQLLSRKQRRLIRQNPGILHSVSGGLQSAVRECKWQFRNRRWNCPTAPGPHLFGKIVNRGCRETAFIFAITSAGVTHSVARSCSEGSIESCTCDYRRRGPGGPDWHWGGCSDNIDFGRLFGREFVDSGEKGRDLRFLMNLHNNEAGRTTVFSEMRQECKCHGMSGSCTVRTCWMRLPTLRAVGDVLRDRFDGASRVLYGNRGSNRASRAELLRLEPEDPAHKPPSPHDLVYFEKSPNFCTYSGRLGTAGTAGRACNSSSPALDGCELLCCGRGHRTRTQRVTERCNCTFHWCCHVSCRNCTHTRVLHECL
# System: hESC-derived retinal progenitor cells
# Test: Differentiation of hESC-derived retinal progenitor cells into photoreceptor cells with substitutes for Wnt3a or Shh; positive rates of retinal cell markers by immunochemical staining
# Assay type: cell-based, human
# Conditions: Mean ± S.E.M., sample size 3
# Procedure: The eye field precursors (floating aggregates) were cultured in 8-well poly-D-lysine/laminin-coated slides (BD Biosciences, Bedford, Mass.) under the same conditions that were used for differentiation into the retinal progenitor cells, the neural retinal progenitor cells, the photoreceptor cell precursors and the photoreceptor cells.
# After being blocked for 90 min, the slides in each differentiation step were incubated overnight at 4° C. with the following antibodies specific for cells of each differentiation step: rabbit-Blue-opsin (1:500, Chemicon), sheep-Chx10 (1:100, Chemicon), rabbit-Crx (1:200, Santa Cruz Biotechnology, Santa Cruz, Calif., USA), rabbit-GFAP (1:200, Invitrogen), mouse-human specific mitochondria (1:50, Chemicon), rabbit-human specific mitochondria (1:200, Chemicon), mouse-Islet1 (1:10, Developmental Studies Hydroma Bank, DSHB; Iowa City, Iowa, USA), mouse-Ki67 (1:100, Vector Laboratories, Peterborough, England), mouse-Mitf (1:1,000, abcam, Cambridge, Mass., USA), mouse-nestin (1:250, BD Sciences), rabbit-neurofilament-200 (1:1,000, Sigma-Aldrich), rabbit-Otx2 (1:100, abcam), rabbit-Pax2 (1:250, abcam), mouse-Pax6 (1:2, DSHB), mouse-peripherin2 (1:500, GenScript, Piscataway, N.J., USA), rabbit-Rax (1:250, abcam), rabbit-recoverin (1:1,000, Chemicon), retinal pigment epithelium 65 (RPE65, 1:100, Chemicon), rabbit-rhodopsin (1:500, Sigma-Aldrich), mouse-rhodopsin (1:500, Ret-P1, Lab Vision, Fremont, Calif., USA), mouse-rhodopsin (1:2,000, Ret-P1, Sigma-Aldrich), mouse-rom1 (1:50, ABR-Affinity Bioreagents, Golden, Colo., USA), rabbit-PDE6 beta (1:100, abcam), rabbit-phosducin (1:500, Santa Cruz Biotechnology), mouse-PKC-alpha (1:500, Sigma-Aldrich), mouse-Prox1 (1:2,000, Chemicon), mouse-Sox2 (1:250, R&D Systems), rabbit-synaptophysin (1:2,000, Santa Cruz Biotechnology), and rabbit-ZO-1 (1:100, Zymed-Invitrogen).
# The cells cultured on the slides in each step were washed three times for 5 min with PBS and incubated at room temperature for 2 hrs with species-specific secondary antibody conjugated with Cy3 (1:800, Jackson Immunoresearch Laboratory) or Alexa488 (1:500, Invitrogen). A standard material suitable for the primary and the secondary antibody was used to examine non-specific staining or interaction between the antibodies. Afterwards, the cells were washed three times for 5 min with PBS, counterstained with DAPI (4,6-diamidino-2 phenylindole) and mounted in Vectashield (Vector Laboratories), followed by visualization under an epifluorescence microscope (Nikon Eclipse, E800, Tokyo, Japan) and a confocal microscope (Leica, Leica Microsystems Inc, Bannockburn, Ill., USA or Zeiss LSM510, Carl Zeiss, Inc, Thornwood, N.Y., USA).
# 500 cells were counted from 20 microscopic fields randomly selected at 200 magnification and evaluated for positive responses to each antibody. Positive responses to antibodies were determined after at least three evaluations. […] All data were represented as mean±standard error of the mean (S.E.M) with a statistical significance of p<0.05.
molecule,measurement,setting,value
"O=C1Nc2cc(Br)ccc2/C1=C1/Nc2ccccc2/C1=N\O [BIO, 6-bromoindirubin-3′-oxime, reference compound]",Positive rate of Crx,2 uM instead of Wnt3a,65.8(±1.0) %
same,Positive rate of Ki67,2 uM instead of Wnt3a,17.2(±0.6) %
same,Positive rate of Pax6,2 uM instead of Wnt3a,92.8(±1.0) %
same,Positive rate of Rom,2 uM instead of Wnt3a,60.3(±0.9) %
same,Positive rate of b-opsin,2 uM instead of Wnt3a,77.5(±1.8) %
same,Positive rate of peripherin2,2 uM instead of Wnt3a,33.9(±0.1) %
same,Positive rate of recoverin,2 uM instead of Wnt3a,77.1(±0.8) %
same,Positive rate of rhodopsin,2 uM instead of Wnt3a,71.5(±1.2) %
"[Cl-].[Li+] [LiCl, reference compound]",Positive rate of recoverin,2.5 mM instead of Wnt3a,64.1(±2.9) %
same,Positive rate of rhodopsin,2.5 mM instead of Wnt3a,56.2(±1.7) %
same,Positive rate of Crx,5 mM instead of Wnt3a,5.0(±1.7) %
same,Positive rate of Ki67,5 mM instead of Wnt3a,33.3(±2.2) %
same,Positive rate of peripherin2,5 mM instead of Wnt3a,1.5(±0.9) %
same,Positive rate of recoverin,5 mM instead of Wnt3a,78.9(±4.4) %
same,Positive rate of rhodopsin,5 mM instead of Wnt3a,68.5(±2.2) %
"O=C1NC(=O)C(c2ccccc2[N+](=O)[O-])=C1Nc1ccc(O)c(Cl)c1 [SB415286, reference compound]",Positive rate of Crx,30 uM instead of Wnt3a,53.7(±2.7) %
same,Positive rate of Ki67,30 uM instead of Wnt3a,13.3(±1.2) %
same,Positive rate of Pax6,30 uM instead of Wnt3a,89.1(±0.6) %
same,Positive rate of Rom,30 uM instead of Wnt3a,59.5(±0.7) %
same,Positive rate of b-opsin,30 uM instead of Wnt3a,53.7(±2.7) %
same,Positive rate of peripherin2,30 uM instead of Wnt3a,9.1(±0.6) %
same,Positive rate of recoverin,30 uM instead of Wnt3a,70.0(±0.6) %
same,Positive rate of rhodopsin,30 uM instead of Wnt3a,69.3(±0.5) %
"c1ccc2c(Oc3nc(Nc4ccc(N5CCOCC5)cc4)c4ncn(C5CCCCC5)c4n3)cccc2c1 [purmorphamine, reference compound]",Positive rate of Crx,1 uM instead of Shh,71.6(±0.8) %
same,Positive rate of Ki67,1 uM instead of Shh,24.3(±0.5) %
same,Positive rate of peripherin2,1 uM instead of Shh,41.5(±1.2) %
same,Positive rate of recoverin,1 uM instead of Shh,76.5(±0.9) %
same,Positive rate of rhodopsin,1 uM instead of Shh,73.5(±1.2) %
"Norrin: recombinant Norrin (R&D Systems), activator of the Wnt pathway, binds to Frizzled4 receptor",Positive rate of Crx,50 ng/ml instead of Wnt3a,39.3(±0.8) %
same,Positive rate of Ki67,50 ng/ml instead of Wnt3a,42.2(±6.8) %
same,Positive rate of Rom,50 ng/ml instead of Wnt3a,69.5(±2.7) %
same,Positive rate of b-opsin,50 ng/ml instead of Wnt3a,71.1(±0.6) %
same,Positive rate of peripherin2,50 ng/ml instead of Wnt3a,24.9(±4.5) %
same,Positive rate of recoverin,50 ng/ml instead of Wnt3a,85.0(±7.2) %
same,Positive rate of rhodopsin,50 ng/ml instead of Wnt3a,82.9(±7.1) %
B1,Positive rate of Crx,50 ng/ml instead of Wnt3a,67.3(±1.9) %
same,Positive rate of Ki67,50 ng/ml instead of Wnt3a,41.3(±3.9) %
same,Positive rate of Rom,50 ng/ml instead of Wnt3a,58.8(±2.7) %
same,Positive rate of b-opsin,50 ng/ml instead of Wnt3a,55.0(±4.4) %
same,Positive rate of peripherin2,50 ng/ml instead of Wnt3a,20.7(±0.8) %
same,Positive rate of recoverin,50 ng/ml instead of Wnt3a,61.0(±3.2) %
same,Positive rate of rhodopsin,50 ng/ml instead of Wnt3a,59.5(±2.0) %
same,Positive rate of peripherin2,100 ng/ml instead of Wnt3a,14.2(±2.8) %
same,Positive rate of recoverin,100 ng/ml instead of Wnt3a,61.6(±2.5) %
same,Positive rate of rhodopsin,100 ng/ml instead of Wnt3a,56.1(±1.8) %
B2,Positive rate of Crx,50 ng/ml instead of Wnt3a,65.9(±5.8) %
same,Positive rate of Ki67,50 ng/ml instead of Wnt3a,40.1(±5.2) %
same,Positive rate of Rom,50 ng/ml instead of Wnt3a,50.2(±7.4) %
same,Positive rate of b-opsin,50 ng/ml instead of Wnt3a,30.6(±6.2) %
same,Positive rate of peripherin2,50 ng/ml instead of Wnt3a,0.5(±0.3) %
same,Positive rate of recoverin,50 ng/ml instead of Wnt3a,65.3(±2.7) %
same,Positive rate of rhodopsin,50 ng/ml instead of Wnt3a,51.8(±7.7) %
same,Positive rate of peripherin2,100 ng/ml instead of Wnt3a,10.7(±2.9) %
same,Positive rate of recoverin,100 ng/ml instead of Wnt3a,61.8(±4.1) %
same,Positive rate of rhodopsin,100 ng/ml instead of Wnt3a,59.1(±5.4) %
B3,Positive rate of Crx,50 ng/ml instead of Wnt3a,60.3(±1.3) %
same,Positive rate of Ki67,50 ng/ml instead of Wnt3a,23.8(±1.2) %
same,Positive rate of Rom,50 ng/ml instead of Wnt3a,55.9(±2.9) %
same,Positive rate of b-opsin,50 ng/ml instead of Wnt3a,61.6(±6.8) %
same,Positive rate of peripherin2,50 ng/ml instead of Wnt3a,3.8(±2.0) %
same,Positive rate of recoverin,50 ng/ml instead of Wnt3a,70.9(±1.8) %
same,Positive rate of rhodopsin,50 ng/ml instead of Wnt3a,66.2(±5.4) %
